Laboratory results as given in patent US10918891B2, “Cosmetic treatment method for the skin” (SYNTIVIA, priority 2016, dated 2021).

Experiments:
Sirtuin-6 = experiment: Protein expression of Sirtuin-6 by immunofluorescence in NHDF; type: cell-based, human; settings: (Ia) 10 ppm, 24 hours
Method: The cells used for this example are normal human Fibroblasts (NHDF).
In this example, the expression of Sirtuin-6 is measured at the protein level by the technique of immunofluorescence, after in vitro incubation of the cells in the absence or in the presence of compound (Ia) at a concentration of 10 ppm in an aqueous solution with 0.1% dimethylsulfoxide (DMSO).
The cells are cultured at the concentration of 5000 cells per well of 96-well plates, in the presence of standard culture medium for NHDF.
The contact with the compound (Ia) is carried out for 24 hours.
TGFβ is used as a positive control at the concentration of 10 ng/ml in an aqueous solution. A non-treated control is also carried out.
The supernatant is eliminated and the cells are prepared for the fluorescent marking. The cells are fixed in the presence of 3.7% formaldehyde, then permeabilised in a buffer containing 1% Triton®, finally the cells are rinsed and incubated in the presence of an anti-SIRT6 antibody (Abcam) for 2 hours. After washing, the cells are incubated in the presence of the secondary antibody (Alexa GAR488, Invitrogen) for 1 h. After washing, the cells are incubated in the presence of DAPI for 10 min, then rinsed once again.
The fluorescence is then quantified using an automated microscope (ArrayScan® (Cellomics®)).

[1] = test system: explants of human skin (NATIVESKIN, Genoskin); experiment: Morphological study (haematoxylin and eosin) of human skin explants after repeated UVA irradiation; type: cell-based; settings: skin explant; topical (Ia) 100 ppm; three UVA stresses 50 J/cm2; FIG. 3
Method: (§1) In these examples, the protective properties of the compound (Ia) against the damage caused to the DNA and to the extracellular matrix by repeated UVA irradiation, are measured on explants of human skin (NATIVESKIN, Genoskin).
(§2) Upon reception of the explants, the latter are topically coated with Carbopol® (Lubrizol)+DMSO for the non-UVA control (CTL without stress) and for the control with stress by UVAs (CTL UVA), and with Carbopol®+compound (Ia) at 100 ppm for the test.
(§3) Over three days, the cells are subjected to three stresses with UVAs at a rate of 50 joules per square centimetre.
(§4) The first irradiation takes place 24 hours after the treatments. The products are present before, during and after the irradiation. The control without stress is wrapped in aluminium and also placed in the irradiator.
(§5) During the irradiation, the explants inserted are disposed in a petri dish with PBS. Fresh medium (Genoskin Culture medium) is added after the irradiation.
(§6) After the third day of irradiation, the explants are cultivated for 24 hours, then collected and fixed for 48 hours in formalin (Sigma). The samples are included in paraffin and cut.
A morphological study of the skin is implemented.
The samples of explant are deparaffined, rehydrated and then they are subjected to colouration with haematoxylin and with eosin in order to observe the in-depth effect of the compound (Ia) on the skin. […]

ELN (Elastin) = experiment: Elastin immunofluorescence on human skin explants after repeated UVA irradiation; type: cell-based; settings: skin explant, (Ia) 100 ppm
Method: as §1, §2, §3, §4, §5, §6
Marking of the protein elastin is carried out by immunofluorescence on a paraffin section.
The samples are prepared for the fluorescent marking. […]
The sections are mounted on a slide and the fluorescence is quantified using a microscope (Leica DM5000B).

NHEK cells = experiment: Survival (WST1) of NHEK keratinocytes exposed to cigarette extract, comparison with caffeic acid; type: cell-based, human; settings: compound 10 ppm pretreatment 24 h and treatment 24 h, cigarette extract 1/50, cigarette extract alone 55% survival, FIG. 4
Method: This study aims to compare the protective or repairing effect of the compounds according to the invention (Ia) and (Ib) with respect to the damage induced on the skin by a cigarette extract. For comparison, caffeic acid (supplier: Acros) is also tested. This acid forms a basic unit of the compounds (Ia) and (Ib) according to the invention.
The NHEK cells are inoculated in a 96-well plate in a suitable medium (Promocell), at a rate of 9000 cells per well, and incubated 24 h at 37° C. and 5% carbon dioxide.
The compounds to be tested are prepared as follows: • (Ia): 10 mg of compound+909 μL of DMSO • (Ib): 7 mg of compound+636 μL of DMSO • caffeic acid: 10 mg of compound+909 μL of DMSO
Each stock solution above is diluted 1000 times, to 10 ppm in the culture medium, then the solutions obtained are filtered by means of a nylon filter (0.22 μm). The final solutions are concentrated to 10 ppm in 0.1% DMSO.
Solutions at 20 ppm in 0.2% DMSO are also prepared in a similar manner, for dilution in the cigarette extract.
An extract of 20 cigarettes is prepared as indicated in example 14 above. This extract is then diluted to 1/50 in the culture medium; or to 2/50 in the culture medium, then to 1/2 in the culture medium, to which the compound to be tested is added at 20 ppm.
The cells are pretreated for 24 h with the compound to be tested at 10 ppm in the culture medium.
The cells are then treated with the cigarette extract diluted to 1/50th with or without the compound tested at 10 ppm for 24 h.
3 h before the end of the test, 10 μl of WST1 cellular proliferation reactant (Roche) are added into each well. The absorbance at 450 nm is measured before and after the addition of WST1 reactant, by means of a Multiskan® reader. The treated cells are compared to the untreated cells and to the cells exposed to the cigarette extract.

Cc1ncc(CO)c(CNC(=O)/C=C/c2ccc(O)c(O)c2)c1O [Compound (Ia)]
Protein expression of the Sirtuin-6 compared to the basal level, based on 100% (Sirtuin-6): 113.69% | Morphology of the skin (epidermal barrier, structure of the dermis) after UVA [1]: the epidermal barrier is preserved from the degradation by the UVAs and the structure of the dermis is preserved | Average fluorescence intensity of the marking ELN (AU) (ELN (Elastin); CTL UVA 145.9, CTL without stress 160.4): 182.4 AU | Cells positive for ELN based on 100% (ELN (Elastin); relative to CTL without stress, CTL UVA −9%): +14% | % survival of the cells (NHEK cells): 108%
